Reference: US10278971B2, “Fluorocyclopentenylcytosine methods of use” (Rexahn Pharmaceuticals, Inc., priority 2015, dated 2019)

Key:
[1] = system: A2780 ovarian cancer cells and NSCLC cell lines; experiment: Radiosensitizing effect, summary over cell lines; format: cell-based, human; details: preincubation, pulse and fractionated irradiation
Procedure: Exponential growing A2780, SW1573, A549, H460 and SW1573/G-cells were exposed to 1 μM RX-3117 or untreated (control) for 24 h and irradiated with single doses γ-radiation (0-6 Gy) using a ^60Co source (Gammacell 200, Atomic Energy of Canada, Ltd). Subsequently, 500 cells/T25 flasks were plated and allowed to form colonies. After ten days colonies were fixed with 100% ethanol and stained with 10% Giemsa stain solution (Merck Chemicals BV, Amsterdam, the Netherlands) for colonies counting. Plating efficiency (PE) was calculated by dividing the number of colonies formed through the number of cells plated and normalized for cytotoxicity induced by control. To illustrate the effect of RX-3117 on radiation, dose modifying factor (DMF) was calculated as described earlier (Bijnsdorp I V, van den Berg J, Kuipers G K, Wedekind L E, Slotman B J, van Rijn J, Lafleur M V M and Sminia P: Radiosensitizing potential of the selective cyclooygenase-2 (COX-2) inhibitor meloxicam on human glioma cells. J Neurooncol 85: 25-31, 2007).

[2] = system: A549; details: as reported in Peters et al. 2013; cited from earlier work
[3] = system: A549 cells; experiment: Protein expression by western blot; format: cell-based, human
Procedure: (§1) The mechanism of cell cycle arrest was investigated by measuring cell cycle proteins expression using western blotting. The influence of RX-3117 on protein expression during different treatment conditions was analyzed by western blot. Cells were lysed using cell lysis buffer 1× (Cell Signaling, Danvers, Mass., USA) containing 4% protease inhibitor cocktail (Roche Diagnostics, Mannheim, Germany) on ice for 30 minutes and centrifuged for 10 minutes at 4° C. at 14,000 rpm. The protein containing supernatant was collected and the Bio-Rad assay was performed to determine protein amount as described in Lemos et al., Pharmacogenomics, 12(2):159-70 (2011). The following antibodies were used for protein expression: DNMT1 (Cell Signaling, 1:1000 #5032S), DNMT3A (Cell Signaling 1:1000 #2160S), DNMT3B (Abcam, 1; 1000), Chk2 (Cell Signaling 1:1000 #6334P), Chk1 (Cell Signaling 1:1000), p-CDC25C (Cell Signaling 1:1000 #4901S), Cdk1 (Cell Signaling 1:1000 #9112S), Cdk2 (Cell Signaling 1:1000 #2546S), wee1 (Cell Signaling 1:1000), 5139-γH2A.X (Cell Signaling, 1:1000), β actin (Sigma, 1:10,000), Caspase 9 (Cell Signaling, 1:1000), PARP (Roche 2003, 1:1000), p53 (Cell Signaling, 1:1000, #9282). The antibodies were diluted in 1:1 solution Rockland buffer (Rockland Inc., Philadelphia, Pa., USA) and PBS supplemented with 0.05% Tween® 20. The proteins were separated in 20% SDS-PAGE and transferred to a PVDF membrane. For fluorescent signal secondary antibodies goat anti-mouse InfraRedDye and goat anti-rabbit InfraRedDye were used. The proteins were detected by an Odyssey InfraRed Imager (Li-COR Bioscience, Lincoln, Nebr., USA).
(§2) The influence of RX-3117 on protein expression during different treatment conditions was analyzed by western blot. Cells were lysed using 1× cell lysis buffer (Cell Signaling, Danvers, Mass., USA) containing 4% protease inhibitor cocktail (Roche Diagnostics, Mannheim, Germany) on ice for 30 minutes and centrifuged for 10 minutes at 4° C. at 14,000 rpm. Bio-Rad assay was performed to determine protein amount in the collected supernatant as described earlier (Lemos C, Kathmann I, Giovannetti E, Calhau C, Jansen G and Peters G J: Impact of cellular folate status and epidermal growth factor receptor expression on BCRP/ABCG2-mediated resistance to gefitinib and erlotinib. Br J Cancer 100: 1120-7, 2009). The following antibodies were used for protein expression: γH2A.X (cat#9718, Cell Signaling, 1:1000), β-actin (Sigma, 1:10,000), Cdc25C Ser216 (cat#4901, Cell Signaling, 1:1000), Cdk1 Tyr15 (cat#9111, Cell Signaling, 1:1000), […] (cat#2197S, Cell Signaling, 1:1000), Histone 3 (cat#4499, Cell Signaling). Antibodies were diluted in 1:1 solution with Rockland buffer (Rockland Inc, Philadelphia, Pa.) and phosphate buffered saline (PBS) supplemented with 0.05 Tween 20. Proteins were separated in 20% SDS-PAGE gel and transferred to polyvinylidene difluoride (PVDF) membrane. For fluorescent signal secondary anti-bodies goat anti-mouse InfraRedDye and goat anti-rabbit InfraRedDye were used. Proteins were detected by an Odyssey InfraRed Imager (Li-COR Bioscience, Lincoln, Nebr.).

[4] = system: SW1573 cells; experiment: Protein expression by western blot; format: cell-based, human
Procedure: as §1, §2

[5] = system: DNMT1 mRNA; experiment: DNMT1 RNA expression by real-time PCR; format: cell-based, human
Procedure: DNMT1 protein expression was measured by Western Blotting after exposure to RX-3117 for 24 or 48 hr. DNMT1 RNA expression was measured by real-time PCR after 24 and 48 hr exposure to RX-3117. DNMT enzyme activity was measured in isolated nuclei after exposure 1 μM RX-3117 or 5 μM aza-CdR using a DNA methyltransferase assay kit provided by EpiGentek using the ability of a CpG dinding domain to bind to methylated DNA. In A549 cells the effect of 5 μM RX-3117 on overall methylation was measured with a specific antibody against 5-methyl-cytosine. Bands on Western blots were visualized using appropriate InfraRedDye using an Odyssey InfraRed imager.

[6] = SW1573, 10 μM, 48 hour exposure
[7] = SW1573, 24 hour exposure to increasing concentrations

Compound: Nc1ccn([C@@H]2C(F)=C(CO)[C@@H](O)[C@H]2O)c(=O)n1 [RX-3117, 4-amino-1-((1S,4R,5S)-2-fluoro-4,5-dihydroxy-3-hydroxymethyl-cyclopent-2-enyl)-1H-pyrimidin-2-one]
- dose modifying factors [1]: 1.4-1.8
- IC50 [2]: 8.3 µM
- p53 expression levels ([3]; A549, 1 μM and 5 μM): increased
- expression of p16INK4A and MGMT ([3]; A549, 5 μM, 24 hr exposure): increased
- DNMT3A and DNMT3B expression levels ([3]; A549, 1-75 μM): increased
- pro-caspase 9 ([3]; A549, 24 hour exposure to increasing concentrations): decreased
- γH2A.X protein expression, combination with irradiation ([4]; SW1573, 0.3 μM plus irradiation): more pronounced
- double strand break damage marker γH2A.X ([4]; SW1573, 0.3 μM, 48 h exposure): increased
- expression of p16INK4A and MGMT ([4]; SW1573, 5 μM, 24 hr exposure): increased
- Chk1 and Cdk2 expression levels [4, 6]: increased
- p-Cdc25C expression levels [4, 6]: decreasing
- cleaved PARP [4, 7]: induced cleaved PARP
- pro-caspase 9 [4, 7]: decreased
- wee1 expression levels [4, 7]: decreased
- double-strand breaks (DSB), biomarker γH2A.X ([4]; SW1573, 48 hour exposure): induced double-strand breaks
- DNMT1 mRNA ([5]; A549 and SW1573, 24 hours exposure): not affected
- DNMT1 mRNA ([5]; A549 and SW1573, 48 hr): affected moderately
